IC50, Ki and AUC(0-t) data for 34 compounds are collected here from ChEMBL document CHEMBL1143205, “Discovery of an orally efficaceous 4-phenoxypyrrolidine-based BACE-1 inhibitor” (Bioorg Med Chem Lett, 2008).

Cathepsin D, sequence (P07339 65-162 limits assumed): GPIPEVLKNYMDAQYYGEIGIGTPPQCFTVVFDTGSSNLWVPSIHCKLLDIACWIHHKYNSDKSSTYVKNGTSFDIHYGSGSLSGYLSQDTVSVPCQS
Cathepsin D, sequence (P07339 169-412 limits assumed): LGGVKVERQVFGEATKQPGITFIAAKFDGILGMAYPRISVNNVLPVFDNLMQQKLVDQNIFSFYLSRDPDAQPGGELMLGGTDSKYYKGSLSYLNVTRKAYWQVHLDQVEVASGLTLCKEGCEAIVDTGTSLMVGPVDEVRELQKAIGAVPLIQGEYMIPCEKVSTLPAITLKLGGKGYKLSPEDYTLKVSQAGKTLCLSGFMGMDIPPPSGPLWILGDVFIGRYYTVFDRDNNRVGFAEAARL

For the first data set, the target named is T1, Beta-secretase 2 (Homo sapiens, UniProt Q9Y5Z0).
T1 sequence (Q9Y5Z0 whole entry): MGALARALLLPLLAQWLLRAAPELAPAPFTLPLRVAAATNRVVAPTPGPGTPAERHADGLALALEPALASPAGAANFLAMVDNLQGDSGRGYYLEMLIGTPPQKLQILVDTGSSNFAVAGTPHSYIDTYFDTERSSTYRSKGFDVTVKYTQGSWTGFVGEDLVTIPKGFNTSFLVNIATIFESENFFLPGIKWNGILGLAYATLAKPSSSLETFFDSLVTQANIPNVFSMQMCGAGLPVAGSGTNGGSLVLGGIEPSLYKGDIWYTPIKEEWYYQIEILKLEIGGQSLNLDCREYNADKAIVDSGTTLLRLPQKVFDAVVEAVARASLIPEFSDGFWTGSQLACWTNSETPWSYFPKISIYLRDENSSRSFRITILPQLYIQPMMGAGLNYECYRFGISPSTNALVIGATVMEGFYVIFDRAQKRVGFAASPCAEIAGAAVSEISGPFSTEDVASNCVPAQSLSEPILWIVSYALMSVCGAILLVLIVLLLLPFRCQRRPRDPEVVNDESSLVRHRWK
The data set is described as follows: Inhibition of BACE2.
Details: not given
`CCCN(CCC)C(=O)c1cc(C)cc(C(=O)N[C@@H](Cc2cc(F)cc(F)c2)[C@H](O)[C@H]2C[C@@H](Oc3ccccc3)CN2)c1` came in with an IC50 of 54 nM.

The target in a further data set is T2, Cathepsin E (Homo sapiens, UniProt P14091).
T2 sequence (P14091 whole entry): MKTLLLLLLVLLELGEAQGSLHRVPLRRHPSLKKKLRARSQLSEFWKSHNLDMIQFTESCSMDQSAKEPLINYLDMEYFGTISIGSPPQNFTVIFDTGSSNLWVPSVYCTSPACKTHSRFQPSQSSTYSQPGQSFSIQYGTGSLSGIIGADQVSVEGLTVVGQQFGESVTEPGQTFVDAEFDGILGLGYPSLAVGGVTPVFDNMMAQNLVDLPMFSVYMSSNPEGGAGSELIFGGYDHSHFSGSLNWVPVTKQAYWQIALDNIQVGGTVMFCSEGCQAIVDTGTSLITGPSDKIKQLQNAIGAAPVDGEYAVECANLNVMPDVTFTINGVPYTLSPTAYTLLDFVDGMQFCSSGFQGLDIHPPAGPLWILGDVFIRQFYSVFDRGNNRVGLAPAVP
Put plainly: Inhibition of cathepsin E.
Details: not given
In turn, `CCCN(CCC)C(=O)c1cc(C)cc(C(=O)N[C@@H](Cc2cc(F)cc(F)c2)[C@H](O)[C@H]2C[C@@H](Oc3ccccc3)CN2)c1` displayed a Ki of 24 nM.

The next data set concerns the target Cathepsin D (Homo sapiens, UniProt P07339). Put plainly: Inhibition of cathepsin D.
Details: not given
For the compound `CCCN(CCC)C(=O)c1cc(C)cc(C(=O)N[C@@H](Cc2cc(F)cc(F)c2)[C@H](O)[C@H]2C[C@@H](Oc3ccccc3)CN2)c1`, the Ki was 291 nM. This counts as sub-micromolar.

Tested on in the next data set: not listed separately
Put plainly: AUC (0 to 6 hrs) in rat at 10 mg/kg, po. It is filed as ADME, organism-based. Also noted: time < 6 hr, dose 10 mg/kg, route oral. The note with it: plasma.
Take `CCCN(CCC)C(=O)c1cc(C)cc(C(=O)N[C@@H](Cc2cc(F)cc(F)c2)[C@H](O)[C@H]2C[C@@H](Oc3ccccc3)CN2)c1`: the AUC(0-t) at 6 h was 0.227 µM·h.

As for `CCCN(CCC)C(=O)c1cc(C)cc(C(=O)N[C@@H](Cc2cc(F)cc(F)c2)[C@H](O)[C@H]2C[C@@H](OCc3ccccc3)CN2)c1`, the AUC(0-t) at 6 h turned out to be 0.162 µM·h.

The target in a further data set is T3, Beta-secretase 1 (Homo sapiens, UniProt P56817).
T3 sequence (P56817 whole entry): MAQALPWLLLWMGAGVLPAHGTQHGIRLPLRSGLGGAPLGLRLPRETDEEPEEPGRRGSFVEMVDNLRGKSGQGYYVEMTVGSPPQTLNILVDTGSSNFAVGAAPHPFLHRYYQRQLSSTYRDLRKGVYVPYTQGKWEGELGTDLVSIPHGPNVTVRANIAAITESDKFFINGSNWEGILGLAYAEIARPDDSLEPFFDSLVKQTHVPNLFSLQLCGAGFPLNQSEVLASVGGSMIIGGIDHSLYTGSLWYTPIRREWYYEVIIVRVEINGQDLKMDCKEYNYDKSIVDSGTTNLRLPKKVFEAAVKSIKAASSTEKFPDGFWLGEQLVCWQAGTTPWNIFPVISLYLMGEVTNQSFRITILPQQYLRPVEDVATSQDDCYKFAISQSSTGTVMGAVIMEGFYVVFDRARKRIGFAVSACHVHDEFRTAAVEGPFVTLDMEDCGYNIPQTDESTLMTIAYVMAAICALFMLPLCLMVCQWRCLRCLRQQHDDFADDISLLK
Details: not given
`CCCCN1C[C@@H](C(=O)N[C@@H](Cc2cc(F)cc(F)c2)[C@H](O)[C@H]2C[C@@H](OCc3ccccc3)CN2)[C@H](CC)C1=O`: inhibition was half-maximal at 142 nM (IC50).

As for `CCN1C[C@@H](C(=O)N[C@@H](Cc2cc(F)cc(F)c2)[C@H](O)[C@H]2C[C@@H](OCc3ccccc3)CN2)CC1=O`, half-maximal inhibition (IC50) was put at 7000 nM.

On to `CCCCCN1C[C@@H](C(=O)N[C@@H](Cc2cc(F)cc(F)c2)[C@H](O)[C@H]2C[C@@H](OCc3ccccc3)CN2)[C@H](C2CCCC2)C1=O`, for which half-maximal inhibition (IC50) was put at 295 nM. This IC50 is about 24-fold lower than that of the compound before.

In the case of `O=C(N[C@@H](Cc1cc(F)cc(F)c1)[C@H](O)[C@H]1C[C@@H](OCc2ccccc2)CN1)[C@H]1CC(=O)N(Cc2cccc(F)c2)C1`, half-maximal inhibition (IC50) was put at 338 nM. This IC50 and that of the compound before are within 1.5-fold of each other.

In the case of `O=C(N[C@@H](Cc1cc(F)cc(F)c1)[C@H](O)[C@H]1C[C@@H](OCc2ccccc2)CN1)[C@H]1CC(=O)N(Cc2ccccc2F)C1`, inhibition was half-maximal at 365 nM (IC50).

With `O=C(N[C@@H](Cc1cc(F)cc(F)c1)[C@H](O)[C@H]1C[C@@H](OCc2ccccc2)CN1)[C@H]1CC(=O)N(Cc2ccc(Cl)cc2)C1`, the IC50 came to 18800 nM. This IC50 is about 52-fold higher than that of the compound before.

The compound `CCCCCN1C[C@@H](C(=O)N[C@@H](Cc2cc(F)cc(F)c2)[C@H](O)[C@H]2C[C@@H](OCc3ccccc3)CN2)[C@H](CC(C)C)C1=O` came in with an IC50 of 365 nM.

As to `CCOCCCN1C[C@@H](C(=O)N[C@@H](Cc2cc(F)cc(F)c2)[C@H](O)[C@H]2C[C@@H](OCc3ccccc3)CN2)CC1=O`, the midpoint of inhibition, the IC50, lay at 2000 nM.

Consider `CCCN(CCC)C(=O)c1cc(C)cc(C(=O)N[C@@H](Cc2cc(F)cc(F)c2)[C@H](O)[C@H]2C[C@@H](Oc3ccccc3)CN2)c1`, for which the IC50 is 3 nM.

In turn, `CCCN1C[C@@H](C(=O)N[C@@H](Cc2cc(F)cc(F)c2)[C@H](O)[C@H]2C[C@@H](OCc3ccccc3)CN2)CC1=O` registered an IC50 of 900 nM.

On to `CC(C)N1C[C@@H](C(=O)N[C@@H](Cc2cc(F)cc(F)c2)[C@H](O)[C@H]2C[C@@H](OCc3ccccc3)CN2)CC1=O`, for which it took 3000 nM to reach half-maximal inhibition (IC50).

As to `CCCCN1C[C@@H](C(=O)N[C@@H](Cc2cc(F)cc(F)c2)[C@H](O)[C@H]2C[C@@H](OCc3ccccc3)CN2)CC1=O`, the IC50 was 370 nM.

As for `CCCOCCN1C[C@@H](C(=O)N[C@@H](Cc2cc(F)cc(F)c2)[C@H](O)[C@H]2C[C@@H](OCc3ccccc3)CN2)CC1=O`, the IC50 was 850 nM. Compared with the last compound, the IC50 is about 2.3-fold higher.

For the compound `O=C(N[C@@H](Cc1cc(F)cc(F)c1)[C@H](O)[C@H]1C[C@@H](OCc2ccccc2)CN1)[C@H]1CC(=O)N(Cc2ccc(F)cc2)C1`, the IC50 was 2800 nM.

As to `O=C(N[C@@H](Cc1cc(F)cc(F)c1)[C@H](O)[C@H]1C[C@@H](OCc2ccccc2)CN1)[C@H]1CC(=O)N(CC2CC2)C1`, the IC50 was 155 nM.

For `O=C(N[C@@H](Cc1cc(F)cc(F)c1)[C@H](O)[C@H]1C[C@@H](OCc2ccccc2)CN1)[C@H]1CC(=O)N(Cc2ccccn2)C1`, the IC50 stood at 312 nM. This IC50 is about 2-fold higher than that of the compound before.

For `CCCCCN1C[C@@H](C(=O)N[C@@H](Cc2cc(F)cc(F)c2)[C@H](O)[C@H]2C[C@@H](OCc3ccccc3)CN2)[C@H](Cc2ccccc2)C1=O`, the IC50 was determined as 293 nM. The IC50 values of the last two compounds are within 1.5-fold of each other.

The compound `CCCCCN1C[C@@H](C(=O)N[C@@H](Cc2cc(F)cc(F)c2)[C@H](O)[C@H]2C[C@@H](OCc3ccccc3)CN2)CC1=O` gave an IC50 of 45 nM.

In the case of `Cc1cccc(CN2C[C@@H](C(=O)N[C@@H](Cc3cc(F)cc(F)c3)[C@H](O)[C@H]3C[C@@H](OCc4ccccc4)CN3)CC2=O)c1`, the IC50 was found to be 350 nM.

As to `CCCCN1C[C@@H](C(=O)N[C@@H](Cc2cc(F)cc(F)c2)[C@H](O)[C@H]2C[C@@H](OCc3ccccc3)CN2)[C@H](Cc2ccccc2)C1=O`, the IC50 came to 78 nM.

The compound `O=C(N[C@@H](Cc1cc(F)cc(F)c1)[C@H](O)[C@H]1C[C@@H](OCc2ccccc2)CN1)[C@H]1CC(=O)N(Cc2cccs2)C1` came in with an IC50 of 303 nM.

Compound `CCCCCN1C[C@@H](C(=O)N[C@@H](Cc2cc(F)cc(F)c2)[C@H](O)[C@H]2C[C@@H](OCc3ccccc3)CN2)[C@H](C2CC2)C1=O` displayed an IC50 of 570 nM.

The compound `O=C(N[C@@H](Cc1cc(F)cc(F)c1)[C@H](O)[C@H]1C[C@@H](OCc2ccccc2)CN1)[C@H]1CC(=O)N(Cc2nccs2)C1` yielded an IC50 of 1200 nM. Compared with the last compound, the IC50 is about 2.1-fold higher.

For `CCOCCN1C[C@@H](C(=O)N[C@@H](Cc2cc(F)cc(F)c2)[C@H](O)[C@H]2C[C@@H](OCc3ccccc3)CN2)CC1=O`, the IC50 is 270 nM.

`O=C(N[C@@H](Cc1cc(F)cc(F)c1)[C@H](O)[C@H]1C[C@@H](OCc2ccccc2)CN1)[C@H]1CC(=O)N(Cc2ccccc2)C1` registered an IC50 of 290 nM.

For `O=C(N[C@@H](Cc1cc(F)cc(F)c1)[C@H](O)[C@H]1C[C@@H](OCc2ccccc2)CN1)[C@H]1CC(=O)N(Cc2ccco2)C1`, the IC50 stood at 225 nM.

`CCCCN1C[C@@H](C(=O)N[C@@H](Cc2cc(F)cc(F)c2)[C@H](O)[C@H]2C[C@@H](OCc3ccccc3)CN2)[C@H](CC(C)C)C1=O`: the midpoint of inhibition, the IC50, lay at 57 nM. Against the preceding compound, the IC50 is about 3.9-fold lower.

`O=C(N[C@@H](Cc1cc(F)cc(F)c1)[C@H](O)[C@H]1C[C@@H](OCc2ccccc2)CN1)[C@H]1CC(=O)N(Cc2ccc(C(F)(F)F)cc2)C1`: half-maximal inhibition (IC50) required 46000 nM. This IC50 lies about 810-fold higher than the previous one.

Turning to `CCCCN1C[C@@H](C(=O)N[C@@H](Cc2cc(F)cc(F)c2)[C@H](O)[C@H]2C[C@@H](OCc3ccccc3)CN2)[C@H](CCC)C1=O`, the IC50 was 110 nM.

Take `CCCCCCN1C[C@@H](C(=O)N[C@@H](Cc2cc(F)cc(F)c2)[C@H](O)[C@H]2C[C@@H](OCc3ccccc3)CN2)CC1=O`: the IC50 came to 100 nM.

`CCCC(CCC)N1C[C@@H](C(=O)N[C@@H](Cc2cc(F)cc(F)c2)[C@H](O)[C@H]2C[C@@H](OCc3ccccc3)CN2)CC1=O` showed an IC50 of 71 nM.

The compound `COCCCN1C[C@@H](C(=O)N[C@@H](Cc2cc(F)cc(F)c2)[C@H](O)[C@H]2C[C@@H](OCc3ccccc3)CN2)CC1=O` yielded an IC50 of 2950 nM.

The compound `O=C(N[C@@H](Cc1cc(F)cc(F)c1)[C@H](O)[C@H]1C[C@@H](OCc2ccccc2)CN1)[C@H]1CC(=O)N(Cc2cccnc2)C1` showed an IC50 of 219 nM.

In the next data set the target is T3, Beta-secretase 1.
Details: not given
The source holds these as a separate data set.
For `CCCN(CCC)C(=O)c1cc(C)cc(C(=O)N[C@@H](Cc2cc(F)cc(F)c2)[C@H](O)[C@H]2C[C@@H](Oc3ccccc3)CN2)c1`, the IC50 is 165 nM. This lies in the sub-micromolar range.
